In patent US20240270762A1, “PENICILLIN-BINDING PROTEIN INHIBITORS” (priority 2021, published 2024):
≈ marks a conversion by molar mass, not a printed value.

Legend:
[1] = target: T1, PBP3 from Acinetobacter baumannii (ATCC 19606) (Acinetobacter baumannii, UniProt A0ABX6CK25); experiment: Bocillin-FL fluorescence polarization competition binding, A. baumannii PBP3; conditions: fluorescence polarization competition binding assay using Bocillin-FL; read-out: A. baumannii PBP3 Potency
T1 sequence (A0ABX6CK25 64-610): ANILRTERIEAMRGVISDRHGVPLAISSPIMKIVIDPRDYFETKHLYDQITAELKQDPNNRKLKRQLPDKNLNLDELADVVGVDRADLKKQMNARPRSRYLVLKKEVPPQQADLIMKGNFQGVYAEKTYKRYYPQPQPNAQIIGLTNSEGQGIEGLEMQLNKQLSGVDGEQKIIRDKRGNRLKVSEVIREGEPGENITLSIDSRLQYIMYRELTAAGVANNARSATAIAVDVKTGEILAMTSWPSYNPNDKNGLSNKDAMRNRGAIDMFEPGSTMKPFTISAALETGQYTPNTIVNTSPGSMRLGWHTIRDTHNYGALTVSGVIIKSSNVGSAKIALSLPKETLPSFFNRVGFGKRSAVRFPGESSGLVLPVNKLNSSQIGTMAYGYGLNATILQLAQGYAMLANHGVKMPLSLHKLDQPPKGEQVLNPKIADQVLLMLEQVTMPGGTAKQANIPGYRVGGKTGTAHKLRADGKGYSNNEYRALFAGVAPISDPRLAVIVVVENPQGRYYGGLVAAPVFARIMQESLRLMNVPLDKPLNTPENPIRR
Outline: (§1)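 Purified PBPs pre-incubated with inhibitor (E. coli PBP3 1.5 μM, 30 min; P. aeruginosa PBP3 0.75 μM, A. baumannii PBP1a 1 μM and PBP3 0.2 μM, 15 min), then Bocillin-FL 0.1 μM (0.05 μM for PBP1a) added; FP read up to 60 min. EC50 = concentration halving bound Bocillin-FL.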

[2] = target: T2, PBP3 from Pseudomonas aeruginosa (PAO1) (Pseudomonas aeruginosa, UniProt G3XD46); experiment: Bocillin-FL fluorescence polarization competition binding, P. aeruginosa PBP3; conditions: Binding affinity to P. aeruginosa PBP3; fluorescence polarization competition binding assay using Bocillin-FL; read-out: P. aeruginosa PBP3 Potency
T2 construct: made in house
T2 sequence (G3XD46 whole entry): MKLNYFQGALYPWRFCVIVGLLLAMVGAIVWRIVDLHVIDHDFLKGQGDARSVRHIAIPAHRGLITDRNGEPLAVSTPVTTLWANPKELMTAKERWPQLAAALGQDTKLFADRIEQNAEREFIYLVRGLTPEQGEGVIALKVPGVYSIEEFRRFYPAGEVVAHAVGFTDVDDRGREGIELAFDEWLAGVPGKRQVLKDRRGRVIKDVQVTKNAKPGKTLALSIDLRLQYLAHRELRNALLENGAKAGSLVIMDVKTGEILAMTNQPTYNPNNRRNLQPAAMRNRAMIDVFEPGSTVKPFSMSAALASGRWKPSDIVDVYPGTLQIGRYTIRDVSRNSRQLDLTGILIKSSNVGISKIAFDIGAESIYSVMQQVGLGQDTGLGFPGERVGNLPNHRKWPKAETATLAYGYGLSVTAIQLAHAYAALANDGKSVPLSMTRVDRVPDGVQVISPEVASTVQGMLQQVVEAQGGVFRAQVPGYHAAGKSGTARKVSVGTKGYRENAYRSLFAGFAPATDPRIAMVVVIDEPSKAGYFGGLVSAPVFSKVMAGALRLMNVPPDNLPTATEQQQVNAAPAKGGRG
Outline: as §1

[3] = test system: N. gonorrhoeae ATCC 49226; experiment: Liquid broth MIC in Fastidious broth; conditions: Neisseria gonorrhoeae, ATCC49226, read-out: Minimum Inhibitory Concentration (MIC), N. gonorrhoeae ATCC 49226
E. coli AG100A = experiment: Broth microdilution MIC in CAMHB; format: cell-based; conditions: Escherichia coli, read-out: MIC E. coli AG100A
N. gonorrhoeae WHO Q = experiment: Liquid broth MIC in Fastidious broth; conditions: Neisseria gonorrhoeae, read-out: Minimum Inhibitory Concentration (MIC), N. gonorrhoeae WHO Q
N. gonorrhoeae WHO L = experiment: Liquid broth MIC in Fastidious broth; conditions: Neisseria gonorrhoeae, read-out: Minimum Inhibitory Concentration (MIC), N. gonorrhoeae WHO L
Experimental: Liquid broth-based assays were used for antibacterial testing of PBP inhibitors in Neisseria gonorrhoeae. Briefly, cryo-preserved bacterial cultures of clinical strains were streaked for isolation on Chocolate Agar (72 g/L (2×) GC Agar Base (BD #228950) and 2% (2×) Hemoglobin was autoclaved at 121° C. for 20 minutes to sterilize. Once cooled to ˜50° C. the 2×GC Agar Base and 2× Hemoglobin solutions are combined and 1% IsoVitaleX Enrichment (BD #211876) was added to the solution). Strains were incubated at 36° C. and 5% CO2 to allow growth of colonies, 24 hours before inoculum preparation. 2-fold serial dilutions of test compounds were conducted in a 96 well plate with a final volume of 75 μL per well at 2-fold the final desired concentration in Fastidious broth (Remel #R07664). For preparation of assay inoculum, a direct suspension was prepared by aseptically swabbing 10-15 colonies from agar plates into culture tubes containing 2 mL of fresh sterile saline. After the dilution plates were set up, direct suspensions were then diluted in a cuvette containing sterile saline and the optical density was measured at 600 nm. Inocula were diluted such that 75 μL of this culture in Fastidious broth results in a starting bacterial concentration of 5×10^5 CFU/mL when added to the dilution plates. The plates were incubated for ˜24 hours at 36° C. and 5% CO2.

[4] = target: T3, PBP3 from Escherichia coli (K-12) (Escherichia coli, UniProt P0AD68); experiment: Bocillin-FL fluorescence polarization competition binding, E. coli PBP3
T3 construct: made in house
T3 sequence (P0AD68 1-577): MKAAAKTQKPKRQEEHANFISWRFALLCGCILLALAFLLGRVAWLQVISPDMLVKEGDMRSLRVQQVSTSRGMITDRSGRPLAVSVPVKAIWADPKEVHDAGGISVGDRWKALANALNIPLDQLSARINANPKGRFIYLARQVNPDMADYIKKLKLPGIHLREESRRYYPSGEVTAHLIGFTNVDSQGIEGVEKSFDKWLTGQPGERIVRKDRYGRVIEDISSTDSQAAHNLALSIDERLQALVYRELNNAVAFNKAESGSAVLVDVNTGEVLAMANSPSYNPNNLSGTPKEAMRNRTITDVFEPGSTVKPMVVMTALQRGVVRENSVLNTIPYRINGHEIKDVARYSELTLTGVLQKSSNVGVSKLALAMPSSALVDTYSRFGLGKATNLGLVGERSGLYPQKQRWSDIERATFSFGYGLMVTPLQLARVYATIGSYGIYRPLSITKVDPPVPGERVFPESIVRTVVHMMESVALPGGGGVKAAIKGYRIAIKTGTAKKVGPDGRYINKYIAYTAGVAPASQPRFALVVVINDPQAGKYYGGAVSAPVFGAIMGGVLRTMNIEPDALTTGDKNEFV
Outline: as §1

N. gonorrhoeae WHO G = experiment: Liquid broth MIC in Fastidious broth; conditions: Neisseria gonorrhoeae, read-out: Minimum Inhibitory Concentration (MIC), N. gonorrhoeae WHO G
N. gonorrhoeae CDC-0197 = experiment: Liquid broth MIC in Fastidious broth; conditions: Neisseria gonorrhoeae, CDC0197, read-out: Minimum Inhibitory Concentration (MIC), N. gonorrhoeae CDC-0197

SMILES	IC50 [1] [µM]	IC50 [2] [µM]	MIC [3] [µg/mL]	MIC (E. coli AG100A) [µg/mL]	MIC (N. gonorrhoeae WHO Q) [µg/mL]	MIC (N. gonorrhoeae WHO L) [µg/mL]	EC50 [4] [µM]	MIC (N. gonorrhoeae WHO G) [µg/mL]	MIC (N. gonorrhoeae CDC-0197) [µg/mL]
N[C@@H](C(=O)N[C@H]1Cc2cccc(C(=O)O)c2OB1O)c1ccc(P(=O)(O)O)cc1 (single isomer, unassigned) [Example 171]	50 to 250	> 250	> 64	> 128	> 64	> 64	> 250	> 64	> 64
CCN1CCN(C(=O)NC(C(=O)N[C@H]2Cc3cccc(C(=O)O)c3OB2O)c2ccc(P(=O)(O)O)c(O)c2)C(=O)C1=O (stereo partly drawn) [Example 21, (3R)-3-(2-(4-ethyl-2,3-dioxopiperazine-1-carboxamido)-2-(3-hydroxy-4-phosphonophenyl)acetamido)-2-hydroxy-3,4-dihydro-2H-benzo[e][1,2]oxaborinine-8-carboxylic acid]	< 10	< 10	< 1	8 to 16 (≈ 13.2 to 26.5 µM)	< 1	< 1	< 10	< 1	< 1
CS(=O)(=O)N1CCN(C(=O)N[C@@H](C(=O)N[C@H]2Cc3cccc(C(=O)O)c3OB2O)c2ccc(P(=O)(O)O)c(F)c2)C1=O (single isomer, unassigned) [Example 15]	< 10	< 10	< 1	8 to 16 (≈ 12.7 to 25.5 µM)	< 1	< 1	< 10	< 1	< 1
CS(=O)(=O)N1CCN(C(=O)N[C@@H](C(=O)N[C@H]2Cc3cccc(C(=O)O)c3OB2O)c2cc(F)c(P(=O)(O)O)c(F)c2)C1=O (single isomer, unassigned) [Example 18]	< 10	< 10	< 1	8 to 16 (≈ 12.4 to 24.8 µM)	< 1	< 1	< 10	< 1	< 1
CS(=O)(=O)N1CCN(C(=O)NC(C(=O)N[C@H]2Cc3cccc(C(=O)O)c3OB2O)c2ccc(P(=O)(O)O)c(F)c2O)C1=O (stereo partly drawn) [Example 48, (3R)-3-(2-(3-fluoro-2-hydroxy-4-phosphonophenyl)-2-(3-(methylsulfonyl)-2-oxoimidazolidine-1-carboxamido)acetamido)-2-hydroxy-3,4-dihydro-2H-benzo[e][1,2]oxaborinine-8-carboxylic acid]	50 to 250	10 to 50	< 1	> 128	1 to 2 (≈ 1.55 to 3.1 µM)	4 to 8 (≈ 6.21 to 12.4 µM)	10 to 50	< 1	1 to 2 (≈ 1.55 to 3.1 µM)
CS(=O)(=O)N1CCN(C(=O)N[C@@H](C(=O)N[C@H]2Cc3cccc(C(=O)O)c3OB2O)c2ccc(P(=O)(O)O)c(F)c2F)C1=O (single isomer, unassigned) [Example 13]	< 10	< 10	< 1	8 to 16 (≈ 12.4 to 24.8 µM)	< 1	< 1	< 10	< 1	< 1
CS(=O)(=O)N1CCN(C(=O)N[C@@H](C(=O)N[C@H]2Cc3ccc(F)c(C(=O)O)c3OB2O)c2ccc(P(=O)(O)O)c(F)c2F)C1=O [Example 16, (R)-3-((R)-2-(2,3-difluoro-4-phosphonophenyl)-2-(3-(methylsulfonyl)-2-oxoimidazolidine-1-carboxamido)acetamido)-7-fluoro-2-hydroxy-3,4-dihydro-2H-benzo[e][1,2]oxaborinine-8-carboxylic acid]	< 10	< 10	< 1	32 to 64 (≈ 48.2 to 96.3 µM)	< 1	< 1	< 10	< 1	< 1
NC(C(=O)N[C@H]1Cc2ccc(F)c(C(=O)O)c2OB1O)c1ccc(P(=O)(O)O)cc1 (stereo partly drawn) [Example 14, (3R)-3-(2-amino-2-(4-phosphonophenyl)acetamido)-7-fluoro-2-hydroxy-3,4-dihydro-2H-benzo[e][1,2]oxaborinine-8-carboxylic acid]	> 250	> 250	> 64	> 128	> 64	> 64	> 250	> 64	> 64
O=C1CC[C@@H](C(=O)NC(C(=O)N[C@H]2Cc3cccc(C(=O)O)c3OB2O)c2ccc(P(=O)(O)O)cc2)N1 (stereo partly drawn) [Example 64, (3R)-2-hydroxy-3-(2-((S)-5-oxopyrrolidine-2-carboxamido)-2-(4-phosphonophenyl)acetamido)-3,4-dihydro-2H-benzo[e][1,2]oxaborinine-8-carboxylic acid]	–	50 to 250	4 to 8 (≈ 7.53 to 15.1 µM)	> 128	16 to 32 (≈ 30.1 to 60.2 µM)	16 to 32 (≈ 30.1 to 60.2 µM)	50 to 250	4 to 8 (≈ 7.53 to 15.1 µM)	4 to 8 (≈ 7.53 to 15.1 µM)
CS(=O)(=O)NC(C(=O)N[C@H]1Cc2cccc(C(=O)O)c2OB1O)c1ccc(P(=O)(O)O)cc1 (stereo partly drawn) [Example 59, (3R)-2-hydroxy-3-(2-(methylsulfonamido)-2-(4-phosphonophenyl)acetamido)-3,4-dihydro-2H-benzo[e][1,2]oxaborinine-8-carboxylic acid]	–	> 250	16 to 32 (≈ 32.1 to 64.2 µM)	> 128	16 to 32 (≈ 32.1 to 64.2 µM)	16 to 32 (≈ 32.1 to 64.2 µM)	> 250	16 to 32 (≈ 32.1 to 64.2 µM)	16 to 32 (≈ 32.1 to 64.2 µM)
NC(=O)c1ccc(C(=O)NC(C(=O)N[C@H]2Cc3cccc(C(=O)O)c3OB2O)c2ccc(P(=O)(O)O)cc2)nc1 (stereo partly drawn) [Example 188, (3R)-3-(2-(5-carbamoylpicolinamido)-2-(4-phosphonophenyl)acetamido)-2-hydroxy-3,4-dihydro-2H-benzo[e][1,2]oxaborinine-8-carboxylic acid]	–	< 10	< 1	> 128	1 to 2 (≈ 1.76 to 3.52 µM)	4 to 8 (≈ 7.04 to 14.1 µM)	10 to 50	< 1	1 to 2 (≈ 1.76 to 3.52 µM)
Nc1nc(C(=O)N[C@@H](C(=O)N[C@H]2Cc3cccc(C(=O)O)c3OB2O)c2ccc(P(=O)(O)O)cc2)cs1 (racemic) [Example 51, (R)-3-((S)-2-(2-aminothiazole-4-carboxamido)-2-(4-phosphonophenyl)acetamido)-2-hydroxy-3,4-dihydro-2H-benzo[e][1,2]oxaborinine-8-carboxylic acid and (R)-3-((R)-2-(2-aminothiazole-4-carboxamido)-2-(4-phosphonophenyl)acetamido)-2-hydroxy-3,4-dihydro-2H-benzo[e][1,2]oxaborinine-8-carboxylic acid]	–	< 10	< 1	32 to 64 (≈ 58.6 to 117 µM)	1 to 2 (≈ 1.83 to 3.66 µM)	4 to 8 (≈ 7.32 to 14.6 µM)	10 to 50	< 1	< 1
O=C(O)c1cccc2c1OB(O)[C@@H](NC(=O)[C@H](NC(=O)N1CCCCC1=O)c1ccc(P(=O)(O)O)cc1)C2 [Example 37, (R)-2-hydroxy-3-((R)-2-(2-oxopiperidine-1-carboxamido)-2-(4-phosphonophenyl)acetamido)-3,4-dihydro-2H-benzo[e][1,2]oxaborinine-8-carboxylic acid]	–	< 10	< 1	32 to 64 (≈ 58.7 to 117 µM)	1 to 2 (≈ 1.83 to 3.67 µM)	16 to 32 (≈ 29.3 to 58.7 µM)	< 10	< 1	1 to 2 (≈ 1.83 to 3.67 µM)
O=C(O)c1cccc2c1OB(O)[C@@H](NC(=O)C(NS(=O)(=O)C1CC1)c1ccc(P(=O)(O)O)cc1)C2 (stereo partly drawn) [Example 61, (3R)-3-(2-(cyclopropanesulfonamido)-2-(4-phosphonophenyl)acetamido)-2-hydroxy-3,4-dihydro-2H-benzo[e][1,2]oxaborinine-8-carboxylic acid]	–	10 to 50	16 to 32 (≈ 30.5 to 61 µM)	> 128	16 to 32 (≈ 30.5 to 61 µM)	16 to 32 (≈ 30.5 to 61 µM)	50 to 250	16 to 32 (≈ 30.5 to 61 µM)	16 to 32 (≈ 30.5 to 61 µM)
